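All cell lines were grown in 96-well plates and treated with compound for 48 hours. GI50 is the concentration that inhibits growth by half. At the TGI there is no net growth.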
Tests used:
Test in all cases: NCI tumour cell line growth inhibition, 48 h
[1] = tested on: M14 melanoma
[2] = tested on: K-562 leukemia
[3] = tested on: ACHN renal
[4] = tested on: OVCAR-8 ovarian
[5] = tested on: OVCAR-5 ovarian
[6] = tested on: MALME-3M melanoma
[7] = tested on: SF-268 CNS
[8] = tested on: NCI-H226 lung
[9] = tested on: OVCAR-4 ovarian
[10] = tested on: SK-MEL-2 melanoma

For `CC(C)(C)C1CCC2c3c([nH]c4ccccc34)C3C(=O)N(c4ccccc4)C(=O)C3C2C1` (stereo not drawn), the TGI [1] was 19.7 µM, the TGI [2] was 15.8 µM and the TGI [3] was 26.2 µM. The TGI [4] was 17.8 µM, the TGI [5] was > 100 µM and the TGI [6] was 7.31 µM. It also gave a TGI [7] of 52.5 µM, a TGI [8] of 21.6 µM and a TGI [9] of 5.36 µM.

With `Cc1cc(C)c(Cn2cnc3c(Cl)ncnc32)c(C)c1CCl` the GI50 [1] was 99.4 µM, the TGI [1] was > 100 µM and the GI50 [2] was 44.2 µM. The TGI [2] was > 100 µM, the GI50 [3] was 0.233 µM and the TGI [3] was 14.1 µM. For the same compound, the GI50 [4] was > 100 µM, the TGI [4] was > 100 µM and the GI50 [10] was > 100 µM. The TGI [10] was > 100 µM, the GI50 [5] was > 100 µM and the TGI [5] was > 100 µM. The GI50 [7] was 79.7 µM, the TGI [7] was > 100 µM and the GI50 [8] was > 100 µM. The TGI [8] was > 100 µM.

With `COc1cc(CNc2ccccc2C(=O)N2CCN(C(=O)c3cc(-c4cc(OC)c(OC)c(OC)c4)n4nc(-c5ccccc5)cc4n3)CC2)cc(OC)c1OC` the GI50 [1] was 4.05 µM, the TGI [1] was > 100 µM and the GI50 [2] was 1.56 µM. For the same compound, the TGI [2] was > 100 µM, the GI50 [3] was 4.24 µM and the TGI [3] was > 100 µM. For the same compound, the GI50 [4] was 4.35 µM, the TGI [4] was > 100 µM and the GI50 [10] was 4.37 µM. For the same compound, the TGI [10] was > 100 µM, the GI50 [5] was 10.9 µM and the TGI [5] was > 100 µM. For the same compound, the GI50 [7] was 4.89 µM, the TGI [7] was > 100 µM and the GI50 [8] was 4.44 µM. For the same compound, the TGI [8] was 59.4 µM, the GI50 [9] was 4.37 µM and the TGI [9] was > 100 µM.

`CNC(=O)Cc1nc(-c2cccc(NS(=O)(=O)c3c(F)cccc3F)c2F)c(-c2ccnc(Nc3ccccc3)n2)s1` was tested, and the GI50 [1] was 0.0108 µM, the TGI [1] was 6.58 µM and the GI50 [2] was 1.09 µM. For the same compound, the TGI [2] was > 50 µM, the GI50 [3] was 0.889 µM and the TGI [3] was > 50 µM. The GI50 [4] was 7.32 µM, the TGI [4] was > 50 µM and the GI50 [10] was 0.419 µM. For the same compound, the TGI [10] was > 46 µM, the GI50 [5] was 2.85 µM and the TGI [5] was > 50 µM. The GI50 [7] was 6.98 µM, the TGI [7] was > 50 µM and the GI50 [8] was 8.73 µM. For the same compound, the TGI [8] was > 50 µM, the GI50 [9] was > 33.8 µM and the TGI [9] was > 50 µM.

In the case of `C=C[C@@]1(O)CCCC2=C(C(=O)OCC)CC[C@]21C`, the TGI [1] is reported as > 100 µM, the TGI [2] is reported as > 100 µM and the TGI [3] is reported as > 100 µM. For the same compound, the TGI [4] was > 100 µM, the TGI [10] was > 100 µM and the TGI [5] was > 100 µM. For the same compound, the TGI [6] was > 100 µM, the TGI [7] was > 100 µM and the TGI [8] was > 100 µM.

With `Cc1cc(N2CCSCC2)nc(NC2CCCC(Nc3ccnc4cc(Cl)ccc34)C2)n1` (stereo not drawn) the GI50 [1] was 1.85 µM, the TGI [1] was 3.72 µM and the GI50 [2] was 1.14 µM. For the same compound, the TGI [2] was 3.41 µM, the GI50 [3] was 2.06 µM and the TGI [3] was 4.46 µM. It also gave a GI50 [4] of 2.5 µM, a TGI [4] of 5.51 µM and a GI50 [5] of 2.88 µM. The TGI [5] was 14.1 µM, the GI50 [6] was 1.8 µM and the TGI [6] was 3.43 µM. The GI50 [7] was 1.38 µM, the TGI [7] was 3.13 µM and the GI50 [8] was 3.2 µM. It also gave a TGI [8] of 11 µM, a GI50 [9] of 1.61 µM and a TGI [9] of 5.13 µM.

`C=C(Nc1ccc([N+](=O)[O-])cc1[N+](=O)[O-])c1c/c(=N\NC(N)=S)c2ccccc2o1` was tested, and the TGI [1] was > 100 µM, the TGI [3] was > 100 µM and the TGI [4] was > 100 µM. The TGI [10] was > 100 µM, the TGI [5] was > 100 µM and the TGI [7] was > 100 µM. For the same compound, the TGI [8] was > 100 µM and the TGI [9] was > 100 µM.

`CCCN(CCCC(NC(C)=O)C(=O)NCc1ccccc1)C(=O)NCCCl` (stereo not drawn) was tested, and the TGI [1] was > 100 µM, the TGI [2] was > 100 µM and the TGI [3] was > 100 µM. For the same compound, the TGI [4] was > 100 µM, the TGI [10] was > 100 µM and the TGI [6] was > 100 µM. For the same compound, the TGI [7] was > 100 µM, the TGI [8] was > 100 µM and the TGI [9] was > 100 µM.

For `COC1=CC(=O)C2C(C1=O)C(c1ccccc1)[C@H]2C` (stereo partly drawn), the TGI [1] was > 100 µM, the TGI [2] was > 100 µM and the TGI [3] was 68.5 µM. The TGI [4] was > 100 µM, the TGI [10] was > 100 µM and the TGI [5] was > 100 µM. For the same compound, the TGI [6] was 57 µM and the TGI [7] was > 100 µM.

For `CCCCCCCCCCCCCCCCCC(=O)OCC(COC(=O)CCCN)OC(=O)CCCN` (stereo not drawn), the TGI [1] was 31.4 µM, the TGI [2] was > 100 µM and the TGI [3] was > 100 µM. For the same compound, the TGI [4] was 37.1 µM, the TGI [5] was 29.4 µM and the TGI [6] was 38.2 µM. For the same compound, the TGI [7] was 45.3 µM, the TGI [8] was 44.4 µM and the TGI [9] was 40.9 µM.

With `COc1ccc(OC)c2c1[nH]c(=O)c1c3ncccc3cn21` the GI50 [1] was 4.49 µM, the TGI [1] was > 100 µM and the GI50 [2] was 3.62 µM. The TGI [2] was > 100 µM, the GI50 [3] was 2.03 µM and the TGI [3] was > 100 µM. For the same compound, the GI50 [4] was 2.53 µM, the TGI [4] was > 100 µM and the GI50 [10] was 7.17 µM. For the same compound, the TGI [10] was > 100 µM, the GI50 [6] was 5.51 µM and the TGI [6] was > 100 µM. For the same compound, the GI50 [7] was 4.21 µM, the TGI [7] was > 100 µM and the GI50 [8] was 2.41 µM. The TGI [8] was > 100 µM, the GI50 [9] was 3.56 µM and the TGI [9] was 17.2 µM.

For `COC(=O)Cc1ccc(Oc2cnc3cc(F)c(F)cc3n2)cc1`, the GI50 [2] was 31.1 µM, the TGI [2] was 94.8 µM and the GI50 [3] was > 100 µM. For the same compound, the TGI [3] was > 100 µM, the GI50 [4] was > 100 µM and the TGI [4] was > 100 µM. For the same compound, the GI50 [10] was > 100 µM, the TGI [10] was > 100 µM and the GI50 [5] was > 100 µM. For the same compound, the TGI [5] was > 100 µM, the GI50 [6] was > 100 µM and the TGI [6] was > 100 µM. The GI50 [7] was > 100 µM, the TGI [7] was > 100 µM and the GI50 [8] was 52.9 µM. For the same compound, the TGI [8] was > 100 µM, the GI50 [9] was 58.3 µM and the TGI [9] was > 100 µM.

Compound `CCC(CNc1cc(OC)cc2cccnc12)NC1CCCCC1` (stereo not drawn) has a GI50 [1] of 17.1 µM, a TGI [1] of 33.5 µM and a GI50 [2] of 7.68 µM. For the same compound, the TGI [2] was 53.8 µM, the GI50 [3] was 49.7 µM and the TGI [3] was > 100 µM. The GI50 [4] was 51.1 µM, the TGI [4] was > 100 µM and the GI50 [5] was 61 µM. For the same compound, the TGI [5] was > 100 µM, the GI50 [6] was 17.2 µM and the TGI [6] was 34.8 µM. The GI50 [7] was 33.2 µM, the TGI [7] was > 100 µM and the GI50 [8] was 86 µM. The TGI [8] was > 100 µM, the GI50 [9] was 6.2 µM and the TGI [9] was > 100 µM.

`CCN(CC)CCCNC(=O)c1c2c(n3ccccc13)C(=O)c1ncccc1C2=O` was tested, and the GI50 [1] was 0.764 µM, the TGI [1] was 2.25 µM and the GI50 [2] was 0.916 µM. For the same compound, the TGI [2] was > 100 µM, the GI50 [3] was 0.395 µM and the TGI [3] was 3.16 µM. The GI50 [4] was 0.486 µM, the TGI [4] was 2.07 µM and the GI50 [10] was 1.7 µM. For the same compound, the TGI [10] was 3.89 µM, the GI50 [5] was 1.18 µM and the TGI [5] was 4.9 µM. The GI50 [6] was 0.0823 µM, the TGI [6] was 0.425 µM and the GI50 [7] was 1.11 µM. For the same compound, the TGI [7] was 7.09 µM, the GI50 [9] was 0.164 µM and the TGI [9] was 0.903 µM.

For `Cc1cn2c(/C=N/N=C(N)N)c(-c3cccs3)nc2s1`, the GI50 [1] was 1.63 µM, the TGI [1] was 3.01 µM and the GI50 [2] was 2.06 µM. For the same compound, the TGI [2] was 5.43 µM, the GI50 [3] was 2.12 µM and the TGI [3] was 5 µM. The GI50 [4] was 13.2 µM, the TGI [4] was 36 µM and the GI50 [10] was 28.8 µM. For the same compound, the TGI [10] was > 100 µM, the GI50 [5] was 2.37 µM and the TGI [5] was 7.37 µM. The GI50 [7] was 12.9 µM, the TGI [7] was 36.6 µM and the GI50 [8] was 4.18 µM. For the same compound, the TGI [8] was 18.9 µM.

`COc1cc(CNC2c3cc4c(cc3C(c3cc(OC)c(OC)c(OC)c3)[C@H]3C(=O)OCC23)OCO4)cc(OC)c1OC` (stereo partly drawn) was tested, and the TGI [1] was > 100 µM, the TGI [2] was > 100 µM and the TGI [3] was > 100 µM. For the same compound, the TGI [10] was > 100 µM, the TGI [5] was > 100 µM and the TGI [6] was > 100 µM. The TGI [7] was > 100 µM and the TGI [8] was 0.487 µM.
